What was measured:
tau aggregation = tau aggregation (Homo sapiens, UniProt P10636); settings: reported in Kim et al., Exp. Mol. Med. 55, 612-627 (2023); read-out: EC50 (tau aggregation inhibitory section); cited from earlier work
[1] = patients with mild or moderate Alzheimer's disease; most general cause for stopping high-dose LMTM; cited from earlier work
tau oligomer (Tau-BiFC) = molecular target: T1, tau oligomer (Tau-BiFC) (Homo sapiens, UniProt P10636, P618L); assay: Tau-BiFC fluorescent imaging of brain tissues (tau oligomer formation); format: in vivo, mouse
T1 construct: VN173 (BiFC fragment); VC155 (BiFC fragment); expressed in transfected cells; host or cells: brain of transgenic TauP301L-BiFC mice (transgene-expressed)
Source text: • 1) Experimental method for brain tissue sampling • (1) On day 1, after completing 63 times administration schedule, the mice of TauP301L-BiFC mouse model were anesthetized, followed by preparing heart laparotomy. • (2) Saline was introduced into the heart of each mouse in the TauP301L-BiFC mouse model, followed by removing vivo blood using a perfusion pump machine. • (3) The brain of the mouse was extracted and weighed. • (4) The brain to be used for tissue staining experiment was immersed in 4% FPA solution and fixed for 24 hours. • (5) On day 2, after completing fixation, the brain tissues were immersed in 20% sucrose solution to remove water for 24 hours. • (6) On day 3, the brain tissues were immersed in 30% sucrose solution to remove water for 48 hours. • (7) On day 5, the brain tissues free of water were taken and extra moisture was removed. Then, the brain tissues and a frozen tissue embedding agent (OCT compound) were placed in a prepared mold, followed by freezing the brain tissues as fast as possible while protecting the tissues. The frozen brain tissue-containing mold was stored in a defreezer at -80°C. Thereafter, using a cryostat for frozen fragment, the tissues were cut into a unit thickness of 30 µm and stored in 0.05% sodium azide solution.
• (1) On day 1, a brain tissue sample having a thickness of 30 µm under cryosection was selected for each brain region, immersed in PBS solution, and then washed three times. • (2) A solution of 0.05% Sudan Black B in 70% EtOH was stirred overnight (O/N), and then, particles were filtered through 0.22 µm filter. • (3) The selected brain tissue sample was immersed in distilled water (D.W.), and washed three times for 5 minutes. • (4) The brain tissues were immersed in a prepared 0.05% Sudan Black B solution, followed by staining for 10 minutes. • (5) The brain tissues stained in Sudan black B were immersed in 0.1% PBS-T solution, and washed at an interval of 30 seconds to control a degree of staining. • (6) The tissues were washed in D.W. three times for 5 minutes. • (7) In Hoechst solution at a concentration of 0.2 µg/mL in distilled water, the brain tissues were immersed to conduct nuclei staining for 20 minutes. • (8) The tissues were washed in D.W. three times for 5 minutes. • (9) Tau-BiFC imaging was performed using a slide scanner.
• (1) In order to obtain fluorescent images of the stained brain tissues, a brain tissue slide was scanned using Zeiss Axio Scan (Zeiss, Oberkochen, Germany). • BiFC fluorescence: λex=460-490 nm, λem=500-550 nm • AT8 fluorescence: λex=620-640 nm, λem=650-700 nm • Hoechst fluorescence: λex=330-375 nm, λem=430-470 nm • (3) For brain tissues per site obtained through imaging, fluorescent value was calculated through Image J software (NIH).

TauP301L-BiFC mice = assay: Rota-rod test (motor ability) in 4R TauP301L-BiFC mouse model; format: in vivo
Procedure: • (1) After carrying out adaptation training for 3 days, a behavior experiment was performed on day 4. • (2) 1 hour before the experiment, a time for adaptation of experimental mice in a space where the behavior experiment is conducted, should be ensured. • (3) During the period for adaptation training, each mouse is forced to walk on a treadmill for 360 seconds at a speed of 5 rpm, 15 rpm, 20/25 rpm. Here, an experimental mouse losing a balance and fallen to the floor was forced to walk again. • (4) After the adaptation training, the behavior experiment was conducted by gradually increasing the speed from 5 rpm to 35 rpm for 480 seconds. When the treadmill worked, a time (seconds) taken until the experimental mouse lost the balance and fallen to the floor was measured.
Results of evaluating motor ability improvement efficacy through a Rota-rod test in a 4R TauP301L-BiFC mouse model were shown in Table 4 below and FIG. 2. Using a TauP301L-BiFC mouse model including 7- to 12-month-old mice administered with the drug for 5 months, the experiment was conducted. The results were analyzed through bidirectional ANOVA using Tukey's multiple-comparisons (*p<0.05; **p<0.01; n.s.: Insignificant for vehicle).

[2] = LMTM 15 mg/kg oral vs. vehicle, decrease (in parentheses)
[3] = LMTM 15 mg/kg oral vs. vehicle, decrease (in parentheses), *p<0.05

T1 sequence (P10636 1-441 isoform P10636-8 P301L): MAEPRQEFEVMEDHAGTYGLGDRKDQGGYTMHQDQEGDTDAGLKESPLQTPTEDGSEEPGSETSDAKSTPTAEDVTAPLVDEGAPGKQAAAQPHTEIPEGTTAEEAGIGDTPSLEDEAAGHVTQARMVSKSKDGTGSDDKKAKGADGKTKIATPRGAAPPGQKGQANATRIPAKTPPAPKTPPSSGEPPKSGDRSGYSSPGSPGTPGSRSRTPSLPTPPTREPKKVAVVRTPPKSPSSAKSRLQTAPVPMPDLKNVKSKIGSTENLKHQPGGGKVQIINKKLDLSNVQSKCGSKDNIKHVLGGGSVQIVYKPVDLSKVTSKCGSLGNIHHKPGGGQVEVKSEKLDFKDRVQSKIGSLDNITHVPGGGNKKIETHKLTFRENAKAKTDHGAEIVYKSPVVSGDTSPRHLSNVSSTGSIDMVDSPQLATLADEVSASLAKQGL
T1 sequence (P10636 1-441 isoform P10636-8 P301L): as above
Sequence of tau aggregation (P10636 whole entry): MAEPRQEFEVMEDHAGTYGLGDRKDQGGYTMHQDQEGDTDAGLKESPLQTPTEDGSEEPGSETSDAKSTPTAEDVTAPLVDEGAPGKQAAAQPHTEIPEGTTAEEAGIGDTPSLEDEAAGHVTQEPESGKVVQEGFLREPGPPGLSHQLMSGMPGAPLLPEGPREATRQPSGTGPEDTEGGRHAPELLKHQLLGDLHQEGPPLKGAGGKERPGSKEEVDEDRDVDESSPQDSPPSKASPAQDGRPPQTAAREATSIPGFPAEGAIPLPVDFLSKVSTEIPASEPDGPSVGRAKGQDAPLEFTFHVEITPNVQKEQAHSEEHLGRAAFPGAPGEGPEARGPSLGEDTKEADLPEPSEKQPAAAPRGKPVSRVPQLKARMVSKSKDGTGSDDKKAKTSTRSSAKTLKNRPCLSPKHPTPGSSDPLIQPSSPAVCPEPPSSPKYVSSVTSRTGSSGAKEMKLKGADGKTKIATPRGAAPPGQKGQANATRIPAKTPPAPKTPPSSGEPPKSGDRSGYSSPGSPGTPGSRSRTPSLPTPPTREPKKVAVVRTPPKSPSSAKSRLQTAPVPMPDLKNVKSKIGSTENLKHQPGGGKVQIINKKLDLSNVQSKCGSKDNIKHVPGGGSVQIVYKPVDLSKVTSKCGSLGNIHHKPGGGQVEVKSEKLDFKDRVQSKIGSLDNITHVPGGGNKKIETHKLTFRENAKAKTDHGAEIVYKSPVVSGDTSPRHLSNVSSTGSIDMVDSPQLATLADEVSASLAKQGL

With `CN(C)c1ccc2c(c1)Sc1cc(N(C)C)ccc1N2.CS(=O)(=O)O.CS(=O)(=O)O` [LMTM] as the compound, how does the EC50 (tau aggregation) read?
The EC50 was 2200 ± 200 nM.

And the “most common side effects” value [1]?
The value was “most common side effects related to gastrointestinal and urinary system”.

What about the “TauBiFC fluorescent level, Somatosensory cortex” value (tau oligomer (Tau-BiFC); [2]) of the same compound?
The value was “(15 %)”.

What about the “TauBiFC fluorescent level, Substantia nigra” value (tau oligomer (Tau-BiFC); [2]) of the same compound?
The value was “(26 %)”.

What about the “TauBiFC fluorescent level, Hippocampus” value (tau oligomer (Tau-BiFC); [3]) of the same compound?
Its value is “(21 %)*”.

And the “TauBiFC fluorescent level, Motor cortex” value (tau oligomer (Tau-BiFC); [3])?
Its value is “(27 %)*”.

What about the “Tau-BiFC fluorescent level as compared to the vehicle group, in words” value (tau oligomer (Tau-BiFC); LMTM 15 mpk) of the same compound?
The value was “significantly reduced in the motor cortex, hippocampus and substantia nigra regions”.

And the “Duration (Rota-rod test on 11.9 months)” value (TauP301L-BiFC mice; LMTM 15 mg/kg oral vs. vehicle, improvement)?
The value was 57%.

What about the “exercise performance (Rota-rod treadmill), in words” value (TauP301L-BiFC mice; LMTM 15 mg/kg vs. vehicle, mice administered 59 times) of the same compound?
Its value is “exercise performance tended to improve, however, did not show a significant difference”.

From patent EP4595972A1, “PEPTIDE FOR TREATING OR PREVENTING 4R TAUOPATHY” (GemVax & KAEL Co., Ltd., priority 2022, dated 2024)
